Assay results taken from patent US20200361779A1, “COMPOSITION INCLUDING I2SCN- IONS AND/OR I(SCN)2- IONS” (priority 2015, published 2020).
“Also recorded” adds a separate entry of the source.

Test: Degradation of the ions in the concomitant presence of LP (NMR signal at 49 ppm)
Assay type: physicochemical
Conditions: for signal at 49 ppm / wanted ions in concomitant presence of LP: after 48 h
Method: During the production of the wanted ions, if one keeps the enzyme in the mixture, one observes a gradual loss of the wanted ions, and, after 48 h, a total loss of the wanted ions due to enzymatic oxidation of the wanted ions, as illustrated in FIG. 19 in which one observes a decrease in the intensity of the signal as a function of the time of presence of the enzyme in the matrix (solution).

## I2SCN^− and/or I(SCN)2^− ions
3 h of incubation
  signal at 49 ppm in concomitant presence of LP: pronounced decrease of the signal
After 1 h
  signal at 49 ppm in concomitant presence of LP: slight decrease
  signal at 49 ppm / wanted ions in concomitant presence of LP: total disappearance of the signal; also recorded: complete disappearance
Listed as wanted ions
  signal at 49 ppm / wanted ions in concomitant presence of LP: total loss
